From ChEMBL document CHEMBL3813644, “Utilization of Structure-Based Design to Identify Novel, Irreversible Inhibitors of EGFR Harboring the T790M Mutation” (ACS Med Chem Lett, 2016)
Converted amounts (≈) assume the structure as drawn. The source made the active and inactive calls. The rule behind the calls is not given here.

Experiments:
[1] = Solubility of compound at pH 7.4; type: physicochemical; details: buffer
[2] = target: Epidermal growth factor receptor (Homo sapiens, UniProt P00533, EX19DEL); assay: Inhibition of EGFR exon19 deletion activating mutant autophosphorylation in human PC9 cells incubated for 2 hrs by ELISA; type: cell-based, PC-9
Sequence of Epidermal growth factor receptor (Homo sapiens, UniProt P00533, EX19DEL) (P00533 whole entry, looked up, stated change not applied): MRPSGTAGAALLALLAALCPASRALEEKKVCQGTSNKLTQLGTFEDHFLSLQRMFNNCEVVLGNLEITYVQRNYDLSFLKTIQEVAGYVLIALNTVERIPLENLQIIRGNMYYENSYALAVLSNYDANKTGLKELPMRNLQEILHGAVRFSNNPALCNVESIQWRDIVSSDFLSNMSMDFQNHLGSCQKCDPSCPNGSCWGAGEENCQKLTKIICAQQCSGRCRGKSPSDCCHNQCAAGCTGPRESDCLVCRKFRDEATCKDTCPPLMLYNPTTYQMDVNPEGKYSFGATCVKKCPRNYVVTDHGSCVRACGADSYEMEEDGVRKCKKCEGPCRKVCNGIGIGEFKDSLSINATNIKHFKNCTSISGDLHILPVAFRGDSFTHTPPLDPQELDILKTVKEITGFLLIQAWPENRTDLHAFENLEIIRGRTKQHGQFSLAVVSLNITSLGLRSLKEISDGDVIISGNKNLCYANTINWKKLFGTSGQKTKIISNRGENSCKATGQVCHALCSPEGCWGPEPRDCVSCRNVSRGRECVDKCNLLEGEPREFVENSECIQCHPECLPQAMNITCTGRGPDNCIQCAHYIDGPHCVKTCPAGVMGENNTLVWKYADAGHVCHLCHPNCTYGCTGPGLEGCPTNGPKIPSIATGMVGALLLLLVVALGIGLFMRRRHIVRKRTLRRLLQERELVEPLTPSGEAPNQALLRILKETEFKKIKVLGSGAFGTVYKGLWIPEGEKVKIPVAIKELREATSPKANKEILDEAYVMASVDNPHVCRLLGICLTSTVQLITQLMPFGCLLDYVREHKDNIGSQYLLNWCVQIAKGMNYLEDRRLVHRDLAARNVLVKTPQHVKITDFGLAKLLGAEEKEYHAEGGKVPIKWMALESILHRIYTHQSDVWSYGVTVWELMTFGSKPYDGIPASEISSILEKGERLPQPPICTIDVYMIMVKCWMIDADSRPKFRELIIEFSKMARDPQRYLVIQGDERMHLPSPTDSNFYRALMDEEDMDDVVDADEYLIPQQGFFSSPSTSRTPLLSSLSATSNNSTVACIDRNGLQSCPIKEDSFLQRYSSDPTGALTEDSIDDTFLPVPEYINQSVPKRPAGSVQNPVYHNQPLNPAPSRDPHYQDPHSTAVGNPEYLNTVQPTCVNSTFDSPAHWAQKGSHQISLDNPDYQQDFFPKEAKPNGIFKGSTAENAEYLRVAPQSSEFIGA

[3] = target: T1, Epidermal growth factor receptor (Homo sapiens, UniProt P00533); assay: Inhibition of wild-type EGFR autophosphorylation in human LoVo cells incubated for 2 hrs followed by EGF-stiumlation for 10 mins by ELISA; type: cell-based
T1 sequence (P00533 whole entry): as the sequence (P00533 whole entry, looked up, stated change not applied) above

[4] = target: T2, Epidermal growth factor receptor (Homo sapiens, UniProt P00533, L858R/T790M); assay: Inhibition of EGFR T790M/L858R double mutant autophosphorylation in human NCI-H1975 cells incubated for 2 hrs by ELISA; type: cell-based
T2 sequence (P00533 25-1210 T790M/L858R limits assumed): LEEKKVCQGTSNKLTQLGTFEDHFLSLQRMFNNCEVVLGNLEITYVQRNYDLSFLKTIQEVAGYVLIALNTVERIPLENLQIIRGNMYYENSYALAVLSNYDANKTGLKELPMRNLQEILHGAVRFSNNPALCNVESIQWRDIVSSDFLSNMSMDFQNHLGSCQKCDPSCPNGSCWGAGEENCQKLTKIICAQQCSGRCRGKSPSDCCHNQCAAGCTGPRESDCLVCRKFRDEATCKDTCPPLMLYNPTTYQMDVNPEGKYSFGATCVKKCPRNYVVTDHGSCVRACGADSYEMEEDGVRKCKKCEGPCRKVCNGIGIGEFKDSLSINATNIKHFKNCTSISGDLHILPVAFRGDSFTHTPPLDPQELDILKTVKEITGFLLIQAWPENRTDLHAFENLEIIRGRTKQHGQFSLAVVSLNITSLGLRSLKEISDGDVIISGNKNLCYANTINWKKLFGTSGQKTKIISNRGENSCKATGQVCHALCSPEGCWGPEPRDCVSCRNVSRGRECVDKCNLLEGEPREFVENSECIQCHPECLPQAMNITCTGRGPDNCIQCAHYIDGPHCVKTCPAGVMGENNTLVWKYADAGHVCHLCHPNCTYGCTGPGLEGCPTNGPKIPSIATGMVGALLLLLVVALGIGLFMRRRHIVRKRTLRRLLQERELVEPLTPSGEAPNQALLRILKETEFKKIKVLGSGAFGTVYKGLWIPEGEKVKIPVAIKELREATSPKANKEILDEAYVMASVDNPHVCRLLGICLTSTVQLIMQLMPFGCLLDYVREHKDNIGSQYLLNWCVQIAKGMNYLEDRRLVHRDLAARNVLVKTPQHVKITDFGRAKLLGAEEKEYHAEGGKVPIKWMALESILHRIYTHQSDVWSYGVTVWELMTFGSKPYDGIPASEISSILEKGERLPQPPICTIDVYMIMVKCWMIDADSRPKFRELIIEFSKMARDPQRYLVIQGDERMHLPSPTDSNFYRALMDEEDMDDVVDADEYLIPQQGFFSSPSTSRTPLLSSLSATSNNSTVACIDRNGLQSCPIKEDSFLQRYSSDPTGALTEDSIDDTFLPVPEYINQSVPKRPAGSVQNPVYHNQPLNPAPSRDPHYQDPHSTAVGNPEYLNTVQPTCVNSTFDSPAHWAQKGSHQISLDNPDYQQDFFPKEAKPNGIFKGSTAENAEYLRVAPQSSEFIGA

[5] = target: T1, Epidermal growth factor receptor; assay: Inhibition of wild-type human EGFR at 1 uM
[6] = tested on: Mus musculus; assay: T>EC50 in female nude mouse assessed as time duration during which plasma concentration covers cellular EC50 for EGFR T790M/L858R double mutant autophosphorylation in human NCI-H1975 cells at 50 mg/kg, po; type: ADME, organism-based; details: in vivo
[7] = target: T3, Tyrosine-protein kinase JAK3 (Homo sapiens) (UniProt P52333); assay: Inhibition of human JAK3 at 1 uM
T3 sequence (whole entry): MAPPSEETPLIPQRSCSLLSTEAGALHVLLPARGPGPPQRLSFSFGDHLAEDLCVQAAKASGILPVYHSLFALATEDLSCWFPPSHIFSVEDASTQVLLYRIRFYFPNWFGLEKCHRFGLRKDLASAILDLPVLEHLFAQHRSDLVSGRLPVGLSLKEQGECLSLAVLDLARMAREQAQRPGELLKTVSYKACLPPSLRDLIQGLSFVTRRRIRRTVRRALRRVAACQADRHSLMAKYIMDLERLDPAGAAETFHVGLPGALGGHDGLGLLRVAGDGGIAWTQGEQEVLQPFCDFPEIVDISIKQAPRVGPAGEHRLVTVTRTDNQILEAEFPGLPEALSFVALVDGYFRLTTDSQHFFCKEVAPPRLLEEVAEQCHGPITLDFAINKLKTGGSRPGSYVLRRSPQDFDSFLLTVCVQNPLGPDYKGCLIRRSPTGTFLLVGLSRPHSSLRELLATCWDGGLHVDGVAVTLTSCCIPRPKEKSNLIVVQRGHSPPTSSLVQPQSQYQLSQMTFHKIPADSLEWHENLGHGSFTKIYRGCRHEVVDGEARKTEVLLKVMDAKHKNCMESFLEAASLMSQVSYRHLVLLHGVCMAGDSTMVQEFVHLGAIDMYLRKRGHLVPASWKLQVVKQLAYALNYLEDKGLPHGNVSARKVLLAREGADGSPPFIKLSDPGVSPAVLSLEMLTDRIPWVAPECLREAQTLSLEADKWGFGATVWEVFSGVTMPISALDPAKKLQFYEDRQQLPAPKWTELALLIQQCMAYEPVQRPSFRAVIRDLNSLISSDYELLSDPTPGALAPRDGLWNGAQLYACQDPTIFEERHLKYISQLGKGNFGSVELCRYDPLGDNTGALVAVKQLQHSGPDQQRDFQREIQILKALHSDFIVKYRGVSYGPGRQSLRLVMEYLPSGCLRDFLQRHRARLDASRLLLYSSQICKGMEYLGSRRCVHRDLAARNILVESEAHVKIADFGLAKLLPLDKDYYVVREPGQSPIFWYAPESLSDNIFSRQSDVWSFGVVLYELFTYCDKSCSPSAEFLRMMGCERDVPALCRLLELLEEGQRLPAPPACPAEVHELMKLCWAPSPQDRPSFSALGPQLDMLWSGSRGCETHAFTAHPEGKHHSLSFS

[8] = Antiproliferative activity against human PC9 cells assessed as growth inhibition incubated for 72 hrs by SYTOX green nucleic acid stain-based fluorescence analysis; type: functional; details: PC-9, 72 h
[9] = tested on: NCI-H1975; assay: Antitumor activity against human NCI-H1975 cells harboring EGFR T790M/L858R double mutant xenografted in mouse at 50 mg/kg/day, po qd for 7 days; type: functional; details: 168 h, read-out: TGI
[10] = Antitumor activity against human PC9 cells harboring EGFR exon19 deletion activating mutant xenografted in mouse at 50 mg/kg/day, po qd for 7 days; type: functional; details: PC-9, po, 168 h, read-out: TGI
[11] = tested on: Epidermal growth factor receptor (Homo sapiens), P00533 [L858R,T790M]; assay: Inhibition of human EGFR T790M/L858R double mutant at 1 uM; type: protein assay
[12] = Antiproliferative activity against human Calu6 cells incubated for 72 hrs by SYTOX green nucleic acid stain-based fluorescence analysis; type: cell-based, Calu-6
[13] = tested on: NCI-H1975; assay: Antiproliferative activity against human NCI-H1975 cells assessed as growth inhibition incubated for 72 hrs by SYTOX green nucleic acid stain-based fluorescence analysis; type: functional; details: NCI-H1975, 72 h
[14] = target: T2, Epidermal growth factor receptor; assay: Inhibition of recombinant N-terminal GST-tagged human EGFR T790M/L858R double mutant using biotinylated TK substrate incubated for 50 mins by HTRF assay; type: protein assay
[15] = Intrinsic clearance in human liver microsomes; type: ADME; details: read-out: CLH
[16] = Selectivity ratio of GI50 for human Calu6 cells to GI50 for human NCI-H1975 cells; type: ADME, cell-based; details: Calu6 cells and NCI-H1975 cells, read-out: RatioGI50
[17] = tested on: A-431; assay: Antitumor activity against human A431 cells harboring wild-type EGFR xenografted in mouse at 50 mg/kg/day, po qd for 7 days; type: functional; details: A-431, po, 168 h, read-out: TGI
[18] = Chemical stability of compound; type: physicochemical
[19] = species on record: Homo sapiens; assay: Selectivity ratio of IC50 for wild-type EGFR (unknown origin) to IC50 for recombinant N-terminal GST-tagged human EGFR T790M/L858R double mutant
[20] = tested on: Epidermal growth factor receptor (Homo sapiens), P00533 [T790M]; assay: Reversible inhibition of EGFR T790M mutant (unknown origin)
Sequence of Epidermal growth factor receptor (Homo sapiens), P00533 [T790M] (P00533 whole entry T790M): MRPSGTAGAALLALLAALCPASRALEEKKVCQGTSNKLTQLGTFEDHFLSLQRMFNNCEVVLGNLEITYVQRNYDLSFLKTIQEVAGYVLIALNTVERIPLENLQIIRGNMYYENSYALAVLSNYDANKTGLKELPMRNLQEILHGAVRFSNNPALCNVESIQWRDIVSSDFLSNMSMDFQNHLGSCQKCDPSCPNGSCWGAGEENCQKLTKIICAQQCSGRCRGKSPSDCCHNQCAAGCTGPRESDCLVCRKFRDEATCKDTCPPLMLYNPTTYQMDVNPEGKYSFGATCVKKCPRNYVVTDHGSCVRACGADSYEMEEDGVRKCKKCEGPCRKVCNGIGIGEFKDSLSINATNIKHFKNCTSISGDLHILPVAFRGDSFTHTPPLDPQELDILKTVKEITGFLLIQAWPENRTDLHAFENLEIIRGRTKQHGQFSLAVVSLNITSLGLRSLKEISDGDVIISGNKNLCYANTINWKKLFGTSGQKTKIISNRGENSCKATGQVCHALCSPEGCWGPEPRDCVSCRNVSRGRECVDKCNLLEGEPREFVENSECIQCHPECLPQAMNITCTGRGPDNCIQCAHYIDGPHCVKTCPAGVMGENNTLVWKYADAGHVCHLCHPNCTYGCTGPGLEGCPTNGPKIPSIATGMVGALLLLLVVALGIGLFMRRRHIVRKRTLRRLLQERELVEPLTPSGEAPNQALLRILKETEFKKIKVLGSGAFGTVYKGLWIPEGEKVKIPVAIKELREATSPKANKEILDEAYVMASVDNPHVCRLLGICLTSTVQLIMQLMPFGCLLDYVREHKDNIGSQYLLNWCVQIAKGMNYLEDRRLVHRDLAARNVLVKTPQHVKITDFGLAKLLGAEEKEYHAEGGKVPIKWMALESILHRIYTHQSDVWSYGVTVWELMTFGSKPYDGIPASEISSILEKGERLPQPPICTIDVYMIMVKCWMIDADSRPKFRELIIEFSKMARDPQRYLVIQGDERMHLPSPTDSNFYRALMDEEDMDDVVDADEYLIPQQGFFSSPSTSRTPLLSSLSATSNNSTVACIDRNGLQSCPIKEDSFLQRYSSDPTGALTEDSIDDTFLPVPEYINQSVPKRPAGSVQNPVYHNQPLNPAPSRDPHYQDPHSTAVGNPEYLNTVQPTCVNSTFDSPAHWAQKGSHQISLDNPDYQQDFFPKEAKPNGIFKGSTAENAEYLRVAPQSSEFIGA

Structure (SMILES)	solubility [1] [µM]	EC50 [2] [nM]	EC50 [3] [nM]	EC50 [4] [nM]	microsomal CLint [15] [µL/min/mg]	other results
C=CC(=O)Nc1cccc(-n2c(-c3nc(-c4cnn(C5CCN(C)CC5)c4)cnc3N)nc3ccccc32)c1	< 10	9	980	14	120	inhibition [5]: > 75%; Time [6]: 6 h; inhibition [7]: > 75%; GI50 [8]: 16 nM; inhibition in vivo at 50 mg/kg/day [9]: 117%; inhibition in vivo at 50 mg/kg/day [10]: 238%; inhibition [11]: > 75%; GI50 at 72 h [12]: 1700 nM; GI50 [13]: 25 nM; IC50 [14]: < 1 nM; selectivity ratio [16]: > 60; inhibition in vivo at 50 mg/kg/day [17]: 21%
C=C(C)C(=O)Nc1cccc(-n2c(-c3nc(-c4cnn(C5CCN(C)CC5)c4)cnc3N)nc3ccccc32)c1	–	9130	> 30000	> 20000	–	–
C=CC(=O)Nc1ccc(F)c(-n2c(-c3nc(-c4cnn(C5CCN(C)CC5)c4)cnc3N)nc3ccccc32)c1	< 10	43	4390	73	–	–
C=CC(=O)N(C)c1cccc(-n2c(-c3nc(-c4cnn(C5CCN(C)CC5)c4)cnc3N)nc3ccccc32)c1	–	250	10900	390	–	–
C=CC(=O)Nc1cccc(-n2c(-c3nc(-c4cnn(C5CCN(C)CC5)c4)cnc3N)nc3ccncc32)c1	540 (≈ 281 µg/mL)	100	> 15000	150	68	–
C=CC(=O)Nc1ccccc1Cn1c(-c2nc(-c3cnn(C4CCN(C)CC4)c3)cnc2N)nc2ccccc21	35 (≈ 18.7 µg/mL)	3	420	7	–	Stability [18]: Unstable
CN1CCC(n2cc(-c3cnc(N)c(-c4nc5ccccc5[nH]4)n3)cn2)CC1	–	–	–	–	–	Ratio IC50 [19]: 5; inhibition [20]: Active; IC50 [14]: 290 nM
C=CC(=O)Nc1ccc(-n2c(-c3nc(-c4cnn(C5CCN(C)CC5)c4)cnc3N)nc3ccccc32)cc1	–	120	3380	550	–	–
CC(=O)Nc1cccc(-n2c(-c3nc(-c4cnn(C5CCN(C)CC5)c4)cnc3N)nc3ccccc32)c1	–	8010	> 30000	> 30000	–	–
C=CC(=O)Nc1cccc(-n2c(-c3nc(-c4cnn(C5CCN(C)CC5)c4)cnc3N)nc3ccccc32)c1F	< 10	26	2060	23	–	–
C=CC(=O)Nc1cccc(-n2c(-c3nc(-c4cnn(CCN5CCN(C)CC5)c4)cnc3N)nc3ccccc32)c1	30 (≈ 16.5 µg/mL)	15	2310	15	60	–
C=CC(=O)Nc1cccc(Cn2c(-c3nc(-c4cnn(C5CCN(C)CC5)c4)cnc3N)nc3ccccc32)c1	–	280	> 25000	360	–	–
CCn1c(-c2nc(-c3cnn(C4CCN(C)CC4)c3)cnc2N)nc2ccccc21	–	–	–	–	–	Ratio IC50 [19]: 5; inhibition [20]: Active; IC50 [14]: 50 nM
C=CC(=O)NCCn1c(-c2nc(-c3cnn(C4CCN(C)CC4)c3)cnc2N)nc2ccccc21	–	–	–	14900	–	IC50 [14]: 2200 nM
C=CC(=O)Nc1cccc(-n2c(-c3nc(-c4cnn(C5CCN(C(C)=O)CC5)c4)cnc3N)nc3ccccc32)c1	< 10	23	3510	22	> 300	–
C=CC(=O)Nc1cccc(-n2c(-c3nc(-c4cnn(C5CCN(C(=O)CN(C)C)CC5)c4)cnc3N)nc3ccccc32)c1	18 (≈ 10.6 µg/mL)	13	1140	15	66	–

The remaining compounds from weak to strong by EC50 [4], led by results:

solubility [1] [µM]	EC50 [2] [nM]	EC50 [3] [nM]	EC50 [4] [nM]	microsomal CLint [15] [µL/min/mg]	Structure (SMILES)	other results
–	5060	> 30000	1780	–	C=CC(=O)Nc1ccc(Cn2c(-c3nc(-c4cnn(C5CCN(C)CC5)c4)cnc3N)nc3ccccc32)cc1	–
–	–	–	1710	–	C=CC(=O)NCCCn1c(-c2nc(-c3cnn(C4CCN(C)CC4)c3)cnc2N)nc2ccccc21	IC50 [14]: 200 nM
< 10	370	> 20000	1340	–	C=CC(=O)Nc1cc(-n2c(-c3nc(-c4cnn(C5CCN(C)CC5)c4)cnc3N)nc3ccccc32)ccc1OC	–
< 10	22	5000	24	298	C=CC(=O)Nc1cccc(-n2c(-c3nc(-c4cnn(CCN5CCOCC5)c4)cnc3N)nc3ccccc32)c1	–
< 10	18	3000	24	> 300	C=CC(=O)Nc1cccc(-n2c(-c3nc(-c4cnn(C5CCN(C(=O)CO)CC5)c4)cnc3N)nc3ccccc32)c1	–
300 (≈ 156 µg/mL)	10	4390	18	169	C=CC(=O)Nc1cccc(-n2c(-c3nc(-c4cnn(C5CCN(C)CC5)c4)cnc3N)nc3cnccc32)c1	–
< 10	9	760	14	37	C=CC(=O)Nc1cccc(-n2c(-c3nc(-c4cnn(C5CCN(C(C)C)CC5)c4)cnc3N)nc3ccccc32)c1	–
< 10	8	2250	12	54	C=CC(=O)Nc1cccc(-n2c(-c3nc(-c4cnn(CCO)c4)cnc3N)nc3ccccc32)c1	–
< 10	9	1070	10	24	C=CC(=O)Nc1cccc(-n2c(-c3nc(-c4cnn(C)c4)cnc3N)nc3ccccc32)c1	–
< 10	16	1960	9	197	C=CC(=O)Nc1cccc(-n2c(-c3nc(-c4cnn(C5CCN(CC)CC5)c4)cnc3N)nc3ccccc32)c1	–
